Test results from US20240410898A1, “METHOD FOR DETECTING PROTEIN HAVING CHANGES IN ENERGY STATE, OR AFFINITY OF LIGAND TO PROTEIN” (DALIAN INSTITUTE OF CHEMICAL PHYSICS, CHINESE ACADEMY OF …, priority 2022, published 2024).

Key:
[1] = test system: metal ion-binding proteins in HeLa cell lysate; test: PELSA, zinc chloride-treated HeLa cell lysate; conditions: 30 μM zinc chloride
Protocol: After cell lysis following the procedure described in Example 1, the added EDTA was removed using Zeba Spin desalting columns (Thermo Fisher Scientific) through two rounds of protein desalting. A final concentration of 30 μM zinc chloride (Sigma, catalog number 450111-10G) was added to the 50 μL cell lysate, serving as the experimental group. Proteins meeting the criteria of −log 10Pvalue>3 and log 2FC<−0.5 were considered as proteins stabilized by Zn2+.

[2] = test system: metal ion-binding proteins in HeLa cell lysate; test: PELSA, zinc chloride-treated HeLa cell lysate; conditions: −log 10Pvalue>6 and log 2FC>0
MAT2A and AKR1C2 = test: dimethyl labeling-based PELSA, MAT2A and AKR1C2; assay type: binding; conditions: 100 μM
MAT2A = target: T1, MAT2A (Homo sapiens, UniProt P31153); test: thermal shift assay with purified MAT2A; assay type: binding; conditions: purified protein
T1 construct: made in house
Excerpt: (§1) HSP90 proteins consist of three domains: the N-terminal ATP-binding domain, the middle domain, and the C-terminal domain. […] This finding further supports the capability of PELSA to accurately identify protein regions with changes in energy state. In addition to known target proteins, PELSA also identified several off-target proteins. […] PRDX family proteins play a protective role by clearing ROS under oxidative stress conditions.

AKR1C2 = target: T2, AKR1C2 (Homo sapiens, UniProt P52895); test: thermal shift assay with purified AKR1C2; assay type: binding; conditions: purified protein
T2 construct: made in house
T2 sequence (P52895 1-323): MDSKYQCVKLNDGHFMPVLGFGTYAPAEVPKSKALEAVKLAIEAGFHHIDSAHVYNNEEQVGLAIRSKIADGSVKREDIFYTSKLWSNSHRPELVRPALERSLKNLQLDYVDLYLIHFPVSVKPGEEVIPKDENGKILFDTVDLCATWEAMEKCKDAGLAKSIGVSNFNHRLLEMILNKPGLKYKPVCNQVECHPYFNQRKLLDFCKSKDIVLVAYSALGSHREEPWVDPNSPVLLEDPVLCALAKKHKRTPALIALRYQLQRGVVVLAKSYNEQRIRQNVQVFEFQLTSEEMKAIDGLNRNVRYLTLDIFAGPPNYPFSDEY
Excerpt: as §1

ERBB2 [3] = target: T3, ERBB2 (Homo sapiens, UniProt P04626); test: PELSA, lapatinib-treated BT474 cell lysate; assay type: binding
[4] = test system: CHEK2, SLK, RIPK2, and YES1; test: PELSA, lapatinib-treated BT474 cell lysate, off-target kinases; assay type: binding; conditions: increased lapatinib concentration (1 μM and above)
ERBB2 [5] = target: T3, ERBB2; conditions: cited from earlier work
PTGES2 [6] = target: T4, PTGES2 (Homo sapiens, UniProt Q9H7Z7); test: PELSA, lapatinib-treated BT474 cell lysate, non-kinase off-target; conditions: high concentrations of lapatinib
Protocol: (1) Take a dish of BT474 cells (approximately 5e7 cells) and resuspend them in 1 mL lysis buffer (PBS supplemented with 1% (v/v) protease inhibitor (Sigma, catalog number P8340-5 mL)). Freeze-thaw the mixture three times (freeze in liquid nitrogen for two minutes, thaw in a 37° C. water bath for two minutes, repeat three times) to obtain crude cell lysates. Centrifuge the crude cell lysates at 500 g, 4° C. for 10 minutes, and collect the supernatant as the cell lysate. Determine the protein concentration using the Pierce™ 660 nm Protein Assay (Thermo, USA).
(2) Adjust the protein concentration of the cell lysate to 1 mg/mL using cell lysis buffer. […]
(6) The above-mentioned peptide mixture was reconstituted in 20 μL of 0.1% (v/v) formic acid (Sigma, Catalog No. V900803) and subjected to LC-MS/MS analysis. Each sample was analyzed once using data-independent acquisition (DIA) mass spectrometry. The Spectronaut software was used to identify and quantify the peptides, providing information on the corresponding protein, the peptide's location within the protein, and its abundance in each sample.
(7) The abundance of peptides in the lapatinib-treated and untreated groups was statistically evaluated using Empirical Bayes t-test to determine the P-value and fold change for each peptide, representing the significance and magnitude of the peptide's abundance change upon lapatinib treatment. […]

PTGES2 [7] = target: T4, PTGES2; test: Western blotting of undigested PTGES2 after trypsin digestion; assay type: binding; set-up: collect the supernatant as the cell lysate; endogenous in cells; host or cells: BT474 cell lysate
Protocol: To validate the binding of PTGES2 and lapatinib, we performed Western blotting using a similar procedure and conditions as mentioned above, with the following modifications: The lysis buffer is PBS. After lysis, the resulting cell lysates were divided into 8 portions and treated with equal volumes of lapatinib at different final concentrations (lapatinib dissolved in DMSO), as well as DMSO, resulting in final lapatinib concentrations of 100 μM, 50 μM, 10 μM, 1 μM, 0.1 μM, 0.01 μM, 0.001 μM, and 0. The mixtures were incubated at room temperature (25° C.) for 30 minutes. After incubation, trypsin was added at a 1:40 protease-to-protein weight ratio, and the mixture was subjected to digestion at 37° C. for 1 minute. The digestion was terminated by heating the samples to 95° C., followed by the addition of ¼ volume of 5*loading buffer, and heating at 95° C. for another 5 minutes. Western blotting was employed to detect the undigested proteins. The gel was concentrated at 80 V for 20 minutes, and then separated at 120 V for 60 minutes. Transfer blotting was conducted at a constant current of 250 mA for 40 minutes. After blocking, the primary antibody against PTGES2 (Proteintech, USA) was added at a 1:800 dilution and incubated at room temperature for 1 hour. […] The undigested protein bands were quantified based on their intensities, using GAPDH as a reference protein. […]

[8] = test system: LARS1, LARS2, GLUD1, and SENS2; test: PELSA, leucine-treated K562 cell lysate, known targets; assay type: binding; conditions: 5 mM leucine
Excerpt: (§2) These findings indicate the ability of PELSA to differentiate between distinct binding sites on a single protein. […] SLC1A5 is a membrane protein comprising intracellular, transmembrane, and extracellular regions. The Na-dicarboxylate_symporter domain (residues 54-483), located in the extracellular region, plays a key role in amino acid transport.

SLC1A5 = target: T5, SLC1A5 (Homo sapiens, UniProt Q15758); test: PELSA, leucine-treated K562 cell lysate, SLC1A5; assay type: binding; conditions: 5 mM leucine
T5 construct: Protein-level volcano plot corresponding to 5 mM leucine-treated K562 cell lysates; endogenous in cells; host or cells: K562 cell lysate
T5 sequence (Q15758 1-541): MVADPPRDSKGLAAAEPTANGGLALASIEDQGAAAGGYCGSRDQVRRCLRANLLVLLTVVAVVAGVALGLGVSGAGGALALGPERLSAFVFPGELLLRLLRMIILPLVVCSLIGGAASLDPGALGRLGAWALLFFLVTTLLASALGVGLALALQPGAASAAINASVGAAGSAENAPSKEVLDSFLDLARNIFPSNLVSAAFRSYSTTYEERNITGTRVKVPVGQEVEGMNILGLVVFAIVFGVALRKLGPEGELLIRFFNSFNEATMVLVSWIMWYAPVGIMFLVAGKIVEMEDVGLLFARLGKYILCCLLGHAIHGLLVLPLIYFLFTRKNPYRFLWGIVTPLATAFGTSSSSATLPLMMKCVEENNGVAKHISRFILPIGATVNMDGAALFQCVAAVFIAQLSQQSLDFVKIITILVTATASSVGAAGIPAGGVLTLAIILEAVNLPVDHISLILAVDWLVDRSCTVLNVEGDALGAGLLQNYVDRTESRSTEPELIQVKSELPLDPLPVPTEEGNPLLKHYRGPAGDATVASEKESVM
Excerpt: as §2

PPIP5K1 and PPIP5K2 = test: PELSA, leucine-treated K562 cell lysate, PPIP5K1/2; assay type: binding; conditions: 5 mM leucine, histidine phosphatase domains
Excerpt: as §2

LARS1 = LARS1 (Homo sapiens, UniProt Q9P2J5); conditions: Kim S, et al., Cell Reports, 2021; read-out: dissociation constant, leucine-LARS1; cited from earlier work
[9] = test system: kinases in K562 cell lysate; test: PELSA, staurosporine-treated K562 cell lysate; assay type: binding; conditions: 20 μM staurosporine
Excerpt: (§3) We further compared the protein and peptide coverage depths of LiP-Quant, TPP, and PELSA.

[10] = test system: kinases in HeLa cell lysate; conditions: 20 μM staurosporine
Excerpt: as §3

[11] = test system: kinases in K562 and HeLa lysates
Excerpt: as §3

[12] = test system: kinases in HeLa cell lysates; conditions: kinase proportion ≥80%; cited from earlier work
[13] = test system: kinases in K562 cell lysates; conditions: cited from earlier work
PTPN11 = PTPN11 (Homo sapiens, UniProt Q06124); test: PELSA compared with LiP-MS, SHP099-treated HeLa cell lysate; assay type: binding
[14] = test system: proteins of Escherichia coli; conditions: Piazza I et al., Cell, 2018; cited from earlier work

T4 sequence (Q9H7Z7 whole entry): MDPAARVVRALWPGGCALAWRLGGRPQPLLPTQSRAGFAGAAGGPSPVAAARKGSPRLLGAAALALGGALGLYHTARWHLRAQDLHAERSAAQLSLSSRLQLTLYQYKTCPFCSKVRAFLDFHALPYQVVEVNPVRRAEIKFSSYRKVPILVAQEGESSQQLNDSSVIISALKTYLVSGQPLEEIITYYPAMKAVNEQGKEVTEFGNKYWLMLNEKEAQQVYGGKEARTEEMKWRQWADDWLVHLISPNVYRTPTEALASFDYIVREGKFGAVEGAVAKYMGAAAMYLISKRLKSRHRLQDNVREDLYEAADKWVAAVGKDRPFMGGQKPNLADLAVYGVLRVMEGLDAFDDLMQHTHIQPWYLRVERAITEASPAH
T3 sequence (P04626 23-1255): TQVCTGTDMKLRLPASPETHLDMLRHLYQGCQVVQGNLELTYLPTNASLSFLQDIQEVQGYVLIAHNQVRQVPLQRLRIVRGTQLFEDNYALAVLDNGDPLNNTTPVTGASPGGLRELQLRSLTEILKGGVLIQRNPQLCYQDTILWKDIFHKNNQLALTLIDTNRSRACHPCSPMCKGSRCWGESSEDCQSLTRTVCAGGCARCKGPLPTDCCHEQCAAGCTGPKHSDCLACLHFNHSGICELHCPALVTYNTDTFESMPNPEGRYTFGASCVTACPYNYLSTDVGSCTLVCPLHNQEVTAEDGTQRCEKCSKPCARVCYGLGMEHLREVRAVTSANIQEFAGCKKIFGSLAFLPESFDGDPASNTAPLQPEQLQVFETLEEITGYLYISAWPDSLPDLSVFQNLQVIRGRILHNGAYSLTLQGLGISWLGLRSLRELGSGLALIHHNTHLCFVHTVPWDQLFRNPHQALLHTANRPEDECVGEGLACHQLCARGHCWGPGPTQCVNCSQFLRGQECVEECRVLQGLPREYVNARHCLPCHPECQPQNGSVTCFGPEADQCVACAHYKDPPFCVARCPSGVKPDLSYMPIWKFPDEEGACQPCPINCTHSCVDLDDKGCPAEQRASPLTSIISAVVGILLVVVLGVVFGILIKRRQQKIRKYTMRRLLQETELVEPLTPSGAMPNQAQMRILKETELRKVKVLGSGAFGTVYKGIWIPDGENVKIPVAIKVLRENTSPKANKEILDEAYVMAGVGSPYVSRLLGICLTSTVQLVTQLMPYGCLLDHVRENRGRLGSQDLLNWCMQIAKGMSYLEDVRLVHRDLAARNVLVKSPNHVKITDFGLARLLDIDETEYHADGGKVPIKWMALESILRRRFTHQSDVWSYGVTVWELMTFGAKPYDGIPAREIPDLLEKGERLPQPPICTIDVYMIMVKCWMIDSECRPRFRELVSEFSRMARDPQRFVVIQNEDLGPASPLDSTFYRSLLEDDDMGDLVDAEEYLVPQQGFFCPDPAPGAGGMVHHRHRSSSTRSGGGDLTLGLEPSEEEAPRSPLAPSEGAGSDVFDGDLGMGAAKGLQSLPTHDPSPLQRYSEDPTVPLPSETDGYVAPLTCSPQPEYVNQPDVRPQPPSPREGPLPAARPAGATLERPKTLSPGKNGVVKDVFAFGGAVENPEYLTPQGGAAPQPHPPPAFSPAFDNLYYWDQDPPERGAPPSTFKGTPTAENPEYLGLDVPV
T1 sequence (P31153 whole entry): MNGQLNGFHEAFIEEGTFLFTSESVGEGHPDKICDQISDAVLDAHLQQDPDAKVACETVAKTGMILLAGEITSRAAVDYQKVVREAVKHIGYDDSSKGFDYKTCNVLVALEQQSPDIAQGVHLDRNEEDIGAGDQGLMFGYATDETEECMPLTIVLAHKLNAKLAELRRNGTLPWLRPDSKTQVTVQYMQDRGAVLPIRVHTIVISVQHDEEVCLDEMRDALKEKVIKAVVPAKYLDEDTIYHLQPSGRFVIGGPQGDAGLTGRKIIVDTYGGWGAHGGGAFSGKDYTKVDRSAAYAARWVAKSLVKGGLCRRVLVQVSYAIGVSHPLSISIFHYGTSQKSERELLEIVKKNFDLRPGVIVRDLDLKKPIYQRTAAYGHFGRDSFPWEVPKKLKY
Chain of LARS1 (Q9P2J5 whole entry, species assumed): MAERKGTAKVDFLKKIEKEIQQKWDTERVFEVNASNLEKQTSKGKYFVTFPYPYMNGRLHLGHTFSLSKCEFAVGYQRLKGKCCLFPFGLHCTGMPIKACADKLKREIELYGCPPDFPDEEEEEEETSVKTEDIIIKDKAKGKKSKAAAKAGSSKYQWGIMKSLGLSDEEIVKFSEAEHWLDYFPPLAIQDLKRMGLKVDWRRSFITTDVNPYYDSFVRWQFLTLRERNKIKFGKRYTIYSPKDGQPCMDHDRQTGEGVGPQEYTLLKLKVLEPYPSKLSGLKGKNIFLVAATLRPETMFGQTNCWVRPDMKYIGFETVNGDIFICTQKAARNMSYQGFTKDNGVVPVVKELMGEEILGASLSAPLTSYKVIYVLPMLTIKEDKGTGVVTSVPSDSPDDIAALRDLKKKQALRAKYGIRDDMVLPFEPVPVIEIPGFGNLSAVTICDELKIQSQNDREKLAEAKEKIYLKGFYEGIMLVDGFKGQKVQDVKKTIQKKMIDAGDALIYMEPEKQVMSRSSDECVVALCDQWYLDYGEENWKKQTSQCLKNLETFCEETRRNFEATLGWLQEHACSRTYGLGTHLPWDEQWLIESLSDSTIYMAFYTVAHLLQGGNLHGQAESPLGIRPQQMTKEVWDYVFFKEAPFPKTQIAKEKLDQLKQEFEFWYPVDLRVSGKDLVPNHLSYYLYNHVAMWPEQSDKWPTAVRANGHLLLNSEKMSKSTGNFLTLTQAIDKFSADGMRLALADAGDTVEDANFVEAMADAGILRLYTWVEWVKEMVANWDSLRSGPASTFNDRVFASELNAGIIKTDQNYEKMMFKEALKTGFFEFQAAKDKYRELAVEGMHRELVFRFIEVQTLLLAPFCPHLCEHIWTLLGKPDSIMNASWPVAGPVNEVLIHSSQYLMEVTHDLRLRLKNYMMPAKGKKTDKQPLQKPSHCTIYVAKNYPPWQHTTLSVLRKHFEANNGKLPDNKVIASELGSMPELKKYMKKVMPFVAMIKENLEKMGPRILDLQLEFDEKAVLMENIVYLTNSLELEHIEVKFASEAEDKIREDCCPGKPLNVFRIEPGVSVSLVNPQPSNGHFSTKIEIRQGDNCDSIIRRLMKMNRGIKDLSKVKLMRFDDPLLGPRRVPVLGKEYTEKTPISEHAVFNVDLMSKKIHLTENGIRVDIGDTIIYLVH

Compound: [Cl-].[Cl-].[Zn+2] [Zn2+, zinc chloride]
- Zn2+-binding proteins containing zinc finger motifs [1]: 60
- stability of 26S proteasome regulatory subunits PSMC1-6 [1]: destabilization in the components of the 26S proteasome regulatory subunits
- stabilized Zn2+-binding proteins [1]: 112
- stabilized known Ca2+-binding proteins [1]: 25
- stabilized known Fe2+-binding proteins [1]: 15
- stabilized known Mg2+-binding proteins [1]: 20
- stabilized known Mn2+-binding proteins [1]: 9
- stabilized known binding proteins of other metal ions [1]: 6
- stabilized proteins that are known binding proteins of other metal ions [1]: 73
- stabilized proteins that are known metal ion-binding proteins [1]: 185
- number of proteins stabilized by Zn2+ ([1]; −log 10Pvalue>3 and log 2FC<−0.5): 280
- proportion of known metal ion-binding proteins among stabilized proteins ([1]; 19% in entire identified proteome): more than 66%
- stability of proteins containing IQ motifs [2]: destabilization in several proteins containing IQ motifs

Compound: CC(C)c1cc(-c2n[nH]c(=O)n2-c2ccc3c(ccn3C)c2)c(O)cc1O [ganetespib]
- off-target proteins MAT2A and AKR1C2 (MAT2A and AKR1C2): two previously-unreported off-target proteins of ganetespib, namely MAT2A and AKR1C2
- thermal melting temperature of MAT2A (MAT2A): significantly increased
- thermal melting temperature / stabilization of AKR1C2 (AKR1C2): significantly increased

Compound: CS(=O)(=O)CCNCc1ccc(-c2ccc3ncnc(Nc4ccc(OCc5cccc(F)c5)c(Cl)c4)c3c2)o1 [lapatinib]
- location of significantly altered ERBB2 peptides (ERBB2 [3]; 100 nM lapatinib, |log 2(fold change)|>0.3 & −log 10(P value)>2): only within or in close proximity to the kinase domain
- resistance to proteolysis of peptides within the kinase domain of ERBB2 (ERBB2 [3]; lapatinib 100 μM, 10 μM and 1 μM): more resistant to proteolysis
- energy state changes of other kinases [4]: energy state changes in several other kinases such as CHEK2, SLK, RIPK2, and YES1
- affinity of lapatinib to ERBB2 (ERBB2 [5]): approximately 9 nM
- energy state change of PTGES2 (PTGES2 [6]): exhibited changes in its energy state
- lapatinib concentration at which maximum PTGES2 protection was reached (PTGES2 [7]; Western blotting): 50 µM
- PTGES2 protected from digestion (Western blot band intensity) (PTGES2 [7]; lapatinib 0.001-100 μM, trypsin 1:40, 37° C. 1 minute): increasing amount of PTGES2 protein protected from digestion

Compound: CC(C)C[C@H](N)C(=O)O [leucine]
- energy state changes of LARS1, LARS2, GLUD1, SENS2 [8]: significant changes in the energy states
- energy state change of SLC1A5 (SLC1A5): significant changes in the energy state of SLC1A5
- stabilization of PPIP5K1 and PPIP5K2 (PPIP5K1 and PPIP5K2): stabilized PPIP5K1 and PPIP5K2
- Kd (LARS1): 95 µM

Compound: CN[C@@H]1C[C@H]2O[C@@](C)([C@@H]1OC)n1c3ccccc3c3c4c(c5c6ccccc6n2c5c31)C(=O)NC4 [staurosporine]
- total number of target proteins identified [9]: 143
- total number of target proteins identified [10]: 135
- proportion of kinases among all target proteins ([11]; K562 and HeLa): 80%
- total staurosporine target proteins in the two cell lines ([11]; K562 and HeLa): 192
- significantly changed peptides located within or within 10 residues of kinase domains ([11]; both K562 and HeLa lysates): over 92%
- number of kinase targets identified by LiP-Quant [12]: 9
- number of kinase targets identified by TPP [13]: 53
- total number of target proteins identified by TPP [13]: 60

Compound: SHP099
- fold change of PTPN11 peptide at the SHP099-binding site (PTPN11; 10 μM SHP099): exhibited fold changes exclusively in PELSA experiments
- number of SHP099-responsive PTPN11 peptides, PELSA relative to LiP-MS (PTPN11; 10 μM SHP099, HeLa cell lysate): 5.25 times
- response magnitude of PTPN11 peptides to SHP099, PELSA relative to LiP-MS (PTPN11; 10 μM SHP099, HeLa cell lysate): 6.4 times

Compound: alpha-ketoglutarate [αKG]
- previously known αKG-binding proteins among LiP-MS targets [14]: 2
- target proteins identified by LiP-MS [14]: 34
